# Experimental data from US7745446B2, “Pyrazolo[1,5-c]pyrimidines” (Bayer Schering Pharma Aktiengesellschaft, priority 2004, dated 2010).
# Columns and labels:
# [1] = biological target: T1, GST-ΔPH-Akt1 (Homo sapiens, UniProt P31749); experiment: Biochemical ΔPH Akt1 assay (flashplate, 33P incorporation into histone 2B); settings: 100 nM ATP, histone 2B substrate; read-out: ΔPHAkt1 inhibition: IC50
# T1 construct: named GST-deltaPH-Akt1; 107-480aa; cloned in the pAcGl vector; GST (N); made in house; host or cells: SF9 insect cells (baculovirus vector pAcG1), co-expressed with PDK1
# Excerpt: For the biochemical assay ΔPHAkt1 is used devoid of its PH domain as a GST fusion protein (named GST-deltaPH-Akt1; 107-480aa; cloned in the pAcGl vector (BD Biosciences Pharmingen)), co-expressed with PDK1 in SF9 insect cells. The protein is purified using glutathion-affinity chromatography by standard protocols.
# In order to study the inhibition of Akt according to the invention, a flashplate-based assay has been developed.
# The Akt1 assay is a biochemical assay using Akt1 devoid of its PH domain and co-expressed with PDK1 in insect cells. The GST-ΔPH-Akt1 assay is run in 96 well plates by incubating 100 ng/well GST-ΔPH-Akt1, 100 ng/well histone 2B (Roche, #223514) as substrate, 10 μl of compound of invention (test compounds were dissolved as 10 mM solutions in dimethylsulfoxide (DMSO) and subsequently diluted) and 100 nM ATP (including ^33P-ATP) in 100 μl of reaction buffer ([…], pH7,5; 3 mM MgCl2; 3 mM MnCl2; 3 μM Na-Orthovanadat; 1 mM DTT; 1 μg/ml PEG8000) for 80 minutes at 30° C. The reactions are terminated by adding 100 μl stopping buffer (2% H3PO4 for 5 minutes) and are washed 3 times by using washing buffer (0.9% NaCl). Relying on the incorporation of ^33P into the protein substrate histone 2B, the detection is based on the adhesion of the phosphorylated protein to the surface of scintillator-coated flash plates (NEN, USA; #SMP-200). This phosphorylation is measured by counting the plate for 60 sec. using a plate reader (Wallac Microbeta; Perkin Elmer, USA).
# [2] = biological target: T2, PKA (Homo sapiens, UniProt P17612); experiment: Biochemical PKA assay (flashplate); settings: 100 nM ATP; read-out: PKA inhibition: −log IC50 (converted)
# T2 construct: His; purchased PanVera, USA #R3791; host or cells: E. coli
# Method: For the biochemical PKA assay the catalytic subunit of PKA is expressed in E. coli as a His-tagged human recombinant protein and purified accordingly (PanVera, USA; #R3791).
# In order to study the kinase inhibition activity of the compounds according to the invention, a flashplate-based assay has been developed for the serine/threonine kinase, PKA. The assay is run in 96 well plates by incubating 1 ng/well His-PKA (PanVera, USA; #R3791), 0.5 μM/well PKA peptide (#12-394; Upstate, USA) as substrate, 10 μl of compound of invention (test compounds were dissolved as 10 mM solutions in dimethylsulfoxide (DMSO) and subsequently diluted) and 100 nM ATP (including ^33P-ATP) in 100 μl of reaction buffer ([…], pH7,5; 3 mM MgCl2; 3 mM MnCl2; 3 μM Na-Orthovanadat; 1 mM DTT) for 80 minutes at 22° C. The reactions are stopped by adding 100 μl stopping buffer (2% H3PO4 for 5 minutes) and are washed 3 times by using washing buffer (200 μl 1×PBS). Relying on the incorporation of ^33P into the peptide substrate, the detection is based on the adhesion of the phosphorylated peptide to the surface of scintillator-coated Flash plates (Perkin Elmer, USA; #SMP-103). This phosphorylation is measured by counting the plate for 60 sec. using a plate reader (Wallac Microbeta; Perkin Elmer, USA). By using this method the IC50 of the PKA inhibition is determined.
# [3] = test system: MCF7 cells; experiment: Cellular proliferation/cytotoxicity assay (Alamar Blue), MCF7; settings: Homo sapiens, MCF7, 48 h, read-out: Anti-proliferative/cytotoxic activity: IC50 MCF7
# [4] = test system: MDA-MB-468 cells; experiment: Cellular proliferation/cytotoxicity assay (Alamar Blue), MDA-MB-468; settings: Homo sapiens, MDA-MB-468, 48 h, read-out: Anti-proliferative/cytotoxic activity: IC50 MDA468
# Method: The anti-proliferative activity of the compounds as described herein, is evaluated using MCF7 and MDA-MB-468 (ATCC HTB-22 and HTB-132) cell lines and the Alamar Blue (Resazurin) cell viability assay (O'Brien et al. Eur J Biochem 267, 5421-5426, 2000). Resazurin is reduced to the fluorescent resorufin by cellular dehydrogenase activity, correlating with viable, proliferating cells. Test compounds are dissolved as 10 mM solutions in DMSO and subsequently diluted. MCF7 or MDA-MB-434 cells were seeded into 96 well flat bottom plates at a density of 10000 cells/well (MCF7) or 5000 cells/well (MDA-MB-468) in a volume of 200 μl/well. 24 hours after seeding, 1 μl each of the compound dilutions are added into each well of the 96 well plates. Each compound dilution is tested as at least as duplicates. Wells containing untreated control cells were filled with 200 μl DMEM containing 0.5% v:v DMSO. The cells are then incubated with the substances for 48 hours at 37° C. in a humidified atmosphere containing 5% carbon dioxide. To determine cell viability, 20 μl of a Resazurin solution (Sigma; 90 mg/l) are added. After 4 hours incubation at 37° C. the fluorescence is measured at an extinction of 544 nm and an emission of 590 nm (Wallac Victor2; Perkin Elmer, USA). For the calculation of the cell viability the emission value from untreated cells is set as 100% viability and the emission rates of treated cells are set in relation to the values of untreated cells. Viabilities are expressed as % values. The corresponding IC50 values of the compounds for cytotoxic activity are determined from the concentration-effect curves by means of non-linear regression. The analysis of the data is performed using a biostatistical program (GraphPad Prism, USA).
# T1 sequence (P31749 107-480, stated change not applied): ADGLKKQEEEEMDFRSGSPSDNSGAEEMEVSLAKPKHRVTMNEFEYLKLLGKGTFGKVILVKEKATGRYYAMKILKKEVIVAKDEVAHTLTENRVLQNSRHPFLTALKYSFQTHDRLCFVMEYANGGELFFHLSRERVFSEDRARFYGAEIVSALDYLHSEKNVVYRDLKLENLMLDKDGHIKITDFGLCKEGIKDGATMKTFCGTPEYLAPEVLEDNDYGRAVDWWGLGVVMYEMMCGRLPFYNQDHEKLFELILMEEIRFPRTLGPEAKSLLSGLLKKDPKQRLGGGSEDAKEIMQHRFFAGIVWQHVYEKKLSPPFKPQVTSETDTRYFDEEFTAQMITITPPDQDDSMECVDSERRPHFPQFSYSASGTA
Structure (SMILES),IC50 [1] [µM],IC50 [2] [µM],IC50 [3] [µM],IC50 [4] [µM]
"NCCC(C(=O)Nc1ccc(Nc2nc(-c3cccc4c3oc3ccccc34)cc3ccnn23)cc1)c1ccc(Cl)c(Cl)c1 (racemic) [Example 43, rac-4-Amino-N-[4-(5-dibenzofuran-4-yl-pyrazolo[1,5-c]pyrimidin-7-ylamino)-phenyl]-2-(3,4-dichloro-phenyl)-butyramide]",≤ 1.75,6.31 to 100,≤ 16.9,≤ 13.6
"O=C(Nc1ccc(Nc2nc(-c3cccc4c3oc3ccccc34)cc3ccnn23)cc1)c1ccc(CNCCO)cc1 [Example 57, N-[4-(5-Dibenzofuran-4-yl-pyrazolo[1,5-c]pyrimidin-7-ylamino)-phenyl]-4-[(2-hydroxy-ethylamino)-methyl]-benzamide]",≤ 1.75,> 100,≤ 16.9,≤ 13.6
"CNCc1ccc(C(=O)Nc2cccc(Nc3nc(-c4cccc5c4oc4ccccc45)cc4ccnn34)c2)cc1 [Example 32, N-[3-(5-Dibenzofuran-4-yl-pyrazolo[1,5-c]pyrimidin-7-ylamino)-phenyl]-4-methylaminomethyl-benzamide]",≤ 1.75,6.31 to 100,≤ 16.9,≤ 13.6
"NCc1ccc(C(=O)Nc2ccc(Nc3nc(-c4ccc(I)cc4)cc4ccnn34)cc2)cc1 [Example 68, 4-Aminomethyl-N-{4-[5-(4-iodo-phenyl)-pyrazolo[1,5-c]pyrimidin-7-ylamino]-phenyl}-benzamide]",≤ 1.75,6.31 to 100,≤ 16.9,≤ 13.6
"NCCc1ccc(C(=O)Nc2ccc(Nc3nc(-c4cccc5c4oc4ccccc45)cc4ccnn34)cc2)cc1 [Example 23, 4-(2-Amino-ethyl)-N-[4-(5-dibenzofuran-4-yl-pyrazolo[1,5-c]pyrimidin-7-ylamino)-phenyl]-benzamide]",≤ 1.75,> 100,≤ 16.9,≤ 13.6
"NCc1ccc(C(=O)Nc2cccc(Nc3nc(-c4cccc5c4oc4ccccc45)cc4ccnn34)c2)c(F)c1 [Example 27, 4-Aminomethyl-N-[3-(5-dibenzofuran-4-yl-pyrazolo[1,5-c]pyrimidin-7-ylamino)-phenyl]-2-fluoro-benzamide]",≤ 1.75,> 100,≤ 16.9,≤ 13.6
"COc1ccccc1-c1ccc(-c2cc3ccnn3c(Nc3ccc(NC(=O)c4ccc(CN)cc4)cc3)n2)cc1 [Example 56, 4-Aminomethyl-N-{4-[5-(2′-methoxy-biphenyl-4-yl)-pyrazolo[1,5-c]pyrimidin-7-ylamino]-phenyl}-benzamide]",≤ 1.75,6.31 to 100,≤ 16.9,≤ 13.6
"NCc1cncc(C(=O)Nc2ccc(Nc3nc(-c4cccc5c4oc4ccccc45)cc4ccnn34)cc2)c1 [Example 52, 5-Aminomethyl-N-[4-(5-dibenzofuran-4-yl-pyrazolo[1,5-c]pyrimidin-7-ylamino)-phenyl]-nicotinamide]",≤ 1.75,> 100,≤ 16.9,≤ 13.6
"NCc1ccc(C(=O)Nc2ccc(Nc3nc(-c4ccc(-c5ccccc5F)cc4)cc4ccnn34)cc2)cc1 [Example 69, 4-Aminomethyl-N-{4-[5-(2′-fluoro-biphenyl-4-yl)-pyrazolo[1,5-c]pyrimidin-7-ylamino]-phenyl}-benzamide]",≤ 1.75,6.31 to 100,≤ 16.9,≤ 13.6
"NCc1ccc(C(=O)Nc2ccc(Nc3nc(-c4cccc5c4oc4ccccc45)cc4ccnn34)cc2)o1 [Example 38, 5-Aminomethyl-furan-2-carboxylic acid [4-(5-dibenzofuran-4-yl-pyrazolo[1,5-c]pyrimidin-7-ylamino)-phenyl]-amide]",≤ 1.75,> 100,≤ 16.9,≤ 13.6
"NCc1ccc(C(=O)Nc2ccc(Nc3nc(-c4cccc5c4oc4ccccc45)cc4ccnn34)cc2)nc1 [Example 65, 5-Aminomethyl-pyridine-2-carboxylic acid [4-(5-dibenzofuran-4-yl-pyrazolo[1,5-c]pyrimidin-7-ylamino)-phenyl]-amide]",≤ 1.75,6.31 to 100,≤ 16.9,≤ 13.6
"NCc1ccnc(C(=O)Nc2ccc(Nc3nc(-c4cccc5c4oc4ccccc45)cc4ccnn34)cc2)c1 [Example 53, 4-Aminomethyl-pyridine-2-carboxylic acid [4-(5-dibenzofuran-4-yl-pyrazolo[1,5-c]pyrimidin-7-ylamino)-phenyl]-amide]",≤ 1.75,> 100,≤ 16.9,≤ 13.6
"COCCOc1ccc2cc(-c3cc4ccnn4c(Nc4ccc(NC(=O)c5ccc(CN)cc5)cc4)n3)ccc2c1 [Example 47, 4-Aminomethyl-N-(4-{5-[6-(2-methoxy-ethoxy)-naphthalen-2-yl]-pyrazolo[1,5-c]pyrimidin-7-ylamino}-phenyl)-benzamide]",≤ 1.75,> 100,≤ 16.9,≤ 13.6
"CCOc1ccc2cc(-c3cc4ccnn4c(Nc4ccc(NC(=O)c5ccc(CN)cc5)cc4)n3)ccc2c1 [Example 46, 4-Aminomethyl-N-{4-[5-(6-ethoxy-naphthalen-2-yl)-pyrazolo[1,5-c]pyrimidin-7-ylamino]-phenyl}-benzamide]",≤ 1.75,> 100,≤ 16.9,≤ 13.6
"O=C(Nc1ccc(Nc2nc(-c3cccc4c3oc3ccccc34)cc3ccnn23)cc1)c1ccc2c(c1)CCNC2 [Example 58, 1,2,3,4-Tetrahydro-isoquinoline-6-carboxylic acid [4-(5-dibenzofuran-4-yl-pyrazolo[1,5-c]pyrimidin-7-ylamino)-phenyl]-amide]",≤ 1.75,> 100,≤ 16.9,≤ 13.6
"CNCc1ccc(C(=O)Nc2ccc(Nc3nc(-c4cccc5c4oc4ccccc45)cc4ccnn34)cc2)cc1 [Example 33, N-[4-(5-Dibenzofuran-4-yl-pyrazolo[1,5-c]pyrimidin-7-ylamino)-phenyl]-4-methylaminomethyl-benzamide]",≤ 1.75,> 100,≤ 16.9,≤ 13.6
"NCc1ccc(C(=O)Nc2ccc(Nc3nc(-c4cccc5c4oc4ccccc45)cc4ccnn34)cc2)c(F)c1 [Example 28, 4-Aminomethyl-N-[4-(5-dibenzofuran-4-yl-pyrazolo[1,5-c]pyrimidin-7-ylamino)-phenyl]-2-fluoro-benzamide]",≤ 1.75,> 100,≤ 16.9,≤ 13.6
"NCc1ccc(C(=O)Nc2ccc(Nc3nc(-c4ccc(-c5cccc(F)c5)cc4)cc4ccnn34)cc2)cc1 [Example 70, 4-Aminomethyl-N-{4-[5-(3′-fluoro-biphenyl-4-yl)-pyrazolo[1,5-c]pyrimidin-7-ylamino]-phenyl}-benzamide]",≤ 1.75,6.31 to 100,≤ 16.9,≤ 13.6
